From ChEMBL document CHEMBL1129421, “Comparative molecular field analysis of haptens docked to the multispecific antibody IgE(Lb4)” (J Med Chem, 1996)

System: Monoclonal antibody (mAb)
Experiment: Ability to bind to monoclonal antibody IgE (Lb4), expressed as association constant (LogKA)

Structure (SMILES) | Log KA
Nc1ccc(/N=N/c2ccccc2)c(N)n1 | 6.5
CC(=O)Nc1nnc(S(N)(=O)=O)s1 | 5
CC(C)C(Nc1ccc([N+](=O)[O-])cc1[N+](=O)[O-])C(=O)O (centres undefined) | 5.93
CC(C)CC(Nc1ccc([N+](=O)[O-])cc1[N+](=O)[O-])C(=O)O (centres undefined) | 5.39
O[C@](CCN1CCCCC1)(c1ccccc1)C1CCCC1 | 4.84
Nc1ccc2ccccc2c1 | 5.71
O=C(CCC(=O)Oc1ccccc1C(=O)O)Oc1ccccc1C(=O)O | 4.57
O=C(O)CCC(Nc1ccc([N+](=O)[O-])cc1[N+](=O)[O-])C(=O)O (centres undefined) | 4.63
N=C(N)NCCC[C@H](Nc1ccc([N+](=O)[O-])cc1[N+](=O)[O-])C(=O)O | 5.04
O=[N+]([O-])c1ccc(O)c([N+](=O)[O-])c1 | 4.89
O=C(O)C(Cc1ccc(O)cc1)Nc1ccc([N+](=O)[O-])cc1[N+](=O)[O-] (centres undefined) | 4.85
CSCCC(Nc1ccc([N+](=O)[O-])cc1[N+](=O)[O-])C(=O)O (centres undefined) | 5.72
O=C(O)CNc1ccc([N+](=O)[O-])cc1[N+](=O)[O-] | 4.9
CC(Nc1ccc([N+](=O)[O-])cc1[N+](=O)[O-])C(=O)O (centres undefined) | 5.8
O=C(O)C(Cc1c[nH]c2ccccc12)Nc1ccc([N+](=O)[O-])cc1[N+](=O)[O-] (centres undefined) | 5.93
N#C/C(=C\c1ccccc1)C(=O)O | 5.04
NC(=O)CC(Nc1ccc([N+](=O)[O-])cc1[N+](=O)[O-])C(=O)O (centres undefined) | 4.92
O=C(O)CC(Nc1ccc([N+](=O)[O-])cc1[N+](=O)[O-])C(=O)O (centres undefined) | 5.5
C[N+](C)(C)CC(O)C[N+](C)(C)C | 4.66
O=C(O)c1ccc2ccccc2c1O | 6.71
O=C(O)C1CCCN1c1ccc([N+](=O)[O-])cc1[N+](=O)[O-] (centres undefined) | 5.19
O=C(O)C(CO)Nc1ccc([N+](=O)[O-])cc1[N+](=O)[O-] (centres undefined) | 5.5
CC(O)C(Nc1ccc([N+](=O)[O-])cc1[N+](=O)[O-])C(=O)O (centres undefined) | 5.49
O=C(O)C(Cc1ccccc1)Nc1ccc([N+](=O)[O-])cc1[N+](=O)[O-] (centres undefined) | 5.78
N[C@@H](CCCCNc1ccc([N+](=O)[O-])cc1[N+](=O)[O-])C(=O)O | 4.38
NC(=O)CCC(Nc1ccc([N+](=O)[O-])cc1[N+](=O)[O-])C(=O)O (centres undefined) | 5.08
O[C@@](CCN1CCCCC1)(c1ccccc1)C1CCCC1 | 4.84
O=C(O)c1cccc(C(=O)O)c1C(=O)O | 4.77
Cc1ccc(O)c(C(=O)O)c1 | 5.38
